Laboratory results from article PMC9000625, “Target Design of Novel Histone Deacetylase 6 Selective Inhibitors with 2-Mercaptoquinazolinone as the Cap Moiety” (Molecules, 2022).
“And” between values parts separate entries of the source, which are not always exact repeats. Equal entries are not always repeated. Where two headings read alike, the source gives them in different places. One block for each molecule: values may come before it.

Experiments:
SKOV3 cells = assay: Antiproliferation, SKOV3; format: cell-based; settings: Homo sapiens, SK-OV-3; Ovarian
MDA-MB 231 cells = assay: Antiproliferation, MDA-MB 231; format: cell-based; settings: Homo sapiens, Breast
PANC1 cells = assay: Antiproliferation, PANC1; format: cell-based; settings: Homo sapiens, PANC-1; Pancreas
SW620 cells = assay: Antiproliferation, SW620; format: cell-based; settings: Homo sapiens, SW-620; Colon
Hepa1c1c7 cells = assay: Antiproliferation, Hepa1c1c7; format: cell-based; settings: Hepa-1c1c7; Liver
EMT 6 cells = assay: Antiproliferation, EMT 6; format: cell-based; settings: Mus musculus, EMT6; Breast
HDAC4 = molecular target: T1, HDAC4 (Homo sapiens, UniProt P56524); assay: HDAC enzyme inhibition assay, HDAC4; format: biochemical; settings: read-out: IC50 (µM) HDAC4 (Class IIa)
T1 construct: purchased PBS Biosciences [sic]
T1 sequence (P56524 whole entry): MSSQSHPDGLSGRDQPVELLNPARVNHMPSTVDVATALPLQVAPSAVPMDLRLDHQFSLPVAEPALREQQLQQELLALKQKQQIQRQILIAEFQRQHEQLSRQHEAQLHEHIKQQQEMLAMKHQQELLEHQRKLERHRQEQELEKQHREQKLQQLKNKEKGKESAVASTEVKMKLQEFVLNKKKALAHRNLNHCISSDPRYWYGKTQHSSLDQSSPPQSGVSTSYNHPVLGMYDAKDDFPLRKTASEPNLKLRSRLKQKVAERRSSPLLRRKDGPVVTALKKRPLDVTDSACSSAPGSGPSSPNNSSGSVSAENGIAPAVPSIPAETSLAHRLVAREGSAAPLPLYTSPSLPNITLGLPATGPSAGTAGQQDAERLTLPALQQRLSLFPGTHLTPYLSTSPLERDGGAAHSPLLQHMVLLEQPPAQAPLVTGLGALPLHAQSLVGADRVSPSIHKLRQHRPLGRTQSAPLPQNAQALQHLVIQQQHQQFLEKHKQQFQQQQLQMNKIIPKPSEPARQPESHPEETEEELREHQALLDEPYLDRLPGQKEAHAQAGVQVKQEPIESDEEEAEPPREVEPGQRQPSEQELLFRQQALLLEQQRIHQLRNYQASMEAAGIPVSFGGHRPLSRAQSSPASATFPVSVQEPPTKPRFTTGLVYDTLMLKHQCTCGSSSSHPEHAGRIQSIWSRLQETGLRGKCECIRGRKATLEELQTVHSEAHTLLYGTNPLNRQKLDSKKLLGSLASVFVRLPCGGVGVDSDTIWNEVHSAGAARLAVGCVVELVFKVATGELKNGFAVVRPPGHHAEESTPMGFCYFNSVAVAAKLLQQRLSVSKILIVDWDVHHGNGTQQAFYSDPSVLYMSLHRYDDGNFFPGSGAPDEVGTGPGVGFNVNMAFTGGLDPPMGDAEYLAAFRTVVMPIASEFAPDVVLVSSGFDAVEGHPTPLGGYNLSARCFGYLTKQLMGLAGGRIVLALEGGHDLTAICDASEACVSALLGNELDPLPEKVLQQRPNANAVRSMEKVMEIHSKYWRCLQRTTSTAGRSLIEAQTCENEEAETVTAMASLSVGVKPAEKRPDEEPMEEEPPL

MCF-7 cells = assay: Antiproliferative assay (CELLOMAX viability), MCF-7; format: cell-based, human; settings: for IC50 / Emax: MCF-7, 48 h; for IC50: read-out: IC50 (µM), antiproliferative activity against MCF-7; for Emax: MCF7, highest concentration 250 µM, read-out: Imax (%)
Method: The MCF-7 cell line was obtained from Korean Cell Line Bank (KCLB, Seoul, Korea). The cells were cultured in vitro in DMEM (Invitrogen, Paisley, UK) containing 10% fetal bovine serum (Gibco, Thermo Fisher Scientific, Waltham, MA, USA) and 1% penicillin. Cells were treated with different concentrations of compounds (1–15) in a 1:3 the highest concentration was 250 µM (before dilution) and further incubated for 48 hrs. […] We evaluated the antiproliferative activity of compound 8 against a variety of cells.
The MCF-7 cell line was obtained from ATCC. The cells were cultured in vitro in DMEM (Invitrogen, Paisley, UK) containing 10% fetal bovine serum (Gibco, Thermo Fisher Scientific, Waltham, MA) and 1% penicillin. For cytotoxicity assays, MCF-7 cells were seeded into 96-well culture plates at […] in 0.1 mL of DMEM and incubated at 37 °C with 5% CO2 and 90% humidity. After 16 h, the cells were treated with drugs (250 μM, serially diluted up to three-fold) for 48 h. Cell viability was measured using the CELLOMAXTM Viability Assay kit (Precaregene Co., Seoul, Korea). UV absorption at 450 nm wavelength was measured using an Infinite M200 microplate reader (Tecan, Zürich, Switzerland). The IC50 values were calculated using Prism v7.0 (GraphPad Software Inc., La Jolla, CA). The inhibitory activity of the tested compounds was evaluated by an 8-point dose–response curve (DRC) analysis in triplicates.

N2A cells = assay: Antiproliferation, N2A; format: cell-based; settings: Mus musculus, Brain
HDAC6 = molecular target: T2, HDAC6 (Homo sapiens, UniProt Q9UBN7); assay: HDAC enzyme inhibition assay, HDAC6; format: biochemical
T2 construct: purchased PBS Biosciences [sic]
T2 sequence (Q9UBN7 1-1215): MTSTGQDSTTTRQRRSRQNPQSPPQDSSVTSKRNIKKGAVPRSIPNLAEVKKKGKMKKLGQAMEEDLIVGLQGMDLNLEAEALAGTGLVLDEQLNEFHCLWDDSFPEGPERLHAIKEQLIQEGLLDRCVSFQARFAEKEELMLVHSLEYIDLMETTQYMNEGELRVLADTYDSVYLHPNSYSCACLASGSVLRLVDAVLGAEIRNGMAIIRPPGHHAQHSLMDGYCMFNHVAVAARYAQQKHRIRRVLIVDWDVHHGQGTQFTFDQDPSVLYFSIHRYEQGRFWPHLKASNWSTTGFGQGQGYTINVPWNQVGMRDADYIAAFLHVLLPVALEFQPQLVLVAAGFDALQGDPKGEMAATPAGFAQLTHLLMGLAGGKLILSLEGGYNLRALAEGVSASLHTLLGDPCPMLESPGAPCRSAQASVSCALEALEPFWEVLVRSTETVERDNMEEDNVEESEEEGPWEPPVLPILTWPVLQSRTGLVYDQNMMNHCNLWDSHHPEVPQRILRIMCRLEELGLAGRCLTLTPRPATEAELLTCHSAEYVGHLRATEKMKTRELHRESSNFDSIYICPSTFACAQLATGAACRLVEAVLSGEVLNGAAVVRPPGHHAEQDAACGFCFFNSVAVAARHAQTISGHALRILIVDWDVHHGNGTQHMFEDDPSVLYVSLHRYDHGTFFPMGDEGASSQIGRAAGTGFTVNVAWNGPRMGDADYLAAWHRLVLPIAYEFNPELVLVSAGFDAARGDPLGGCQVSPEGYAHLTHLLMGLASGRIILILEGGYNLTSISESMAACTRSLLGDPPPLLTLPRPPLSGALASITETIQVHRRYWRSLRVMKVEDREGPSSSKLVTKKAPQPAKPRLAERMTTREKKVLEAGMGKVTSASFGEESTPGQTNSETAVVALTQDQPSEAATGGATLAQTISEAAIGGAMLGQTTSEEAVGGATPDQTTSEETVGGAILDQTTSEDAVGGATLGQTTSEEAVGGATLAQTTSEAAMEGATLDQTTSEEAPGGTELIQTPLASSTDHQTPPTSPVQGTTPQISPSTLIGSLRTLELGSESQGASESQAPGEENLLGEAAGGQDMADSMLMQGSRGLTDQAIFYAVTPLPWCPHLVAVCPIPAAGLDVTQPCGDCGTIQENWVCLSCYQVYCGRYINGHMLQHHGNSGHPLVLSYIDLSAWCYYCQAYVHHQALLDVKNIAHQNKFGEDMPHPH
Method: (§1) The compounds were diluted to the indicated concentrations and mixed with HDAC enzymes (HDAC1, HDAC3, HDAC6, HDAC8, HDAC11) and the substrate for 1 h (PBS Biosciences). The fluorescence intensity was measured according to the manufacturer’s instructions.

HDAC11 = molecular target: T3, HDAC11 (Homo sapiens, UniProt Q96DB2); assay: HDAC enzyme inhibition assay, HDAC11; format: biochemical
T3 construct: purchased PBS Biosciences [sic]
T3 sequence (Q96DB2 1-347): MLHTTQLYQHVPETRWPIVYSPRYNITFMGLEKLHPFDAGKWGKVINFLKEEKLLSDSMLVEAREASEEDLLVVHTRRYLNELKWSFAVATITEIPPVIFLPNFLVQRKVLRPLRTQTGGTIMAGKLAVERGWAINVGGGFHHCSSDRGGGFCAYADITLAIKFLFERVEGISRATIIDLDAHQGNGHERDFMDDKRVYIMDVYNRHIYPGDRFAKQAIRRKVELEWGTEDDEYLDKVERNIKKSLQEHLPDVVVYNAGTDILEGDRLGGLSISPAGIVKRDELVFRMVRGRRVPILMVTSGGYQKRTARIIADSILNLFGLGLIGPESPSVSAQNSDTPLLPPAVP
Method: as §1

HDAC8 = molecular target: T4, HDAC8 (Homo sapiens, UniProt Q9BY41); assay: HDAC enzyme inhibition assay, HDAC8; format: biochemical; settings: read-out: IC50 (µM) HDAC8 (Class I)
T4 construct: purchased PBS Biosciences [sic]
T4 sequence (Q9BY41 1-377): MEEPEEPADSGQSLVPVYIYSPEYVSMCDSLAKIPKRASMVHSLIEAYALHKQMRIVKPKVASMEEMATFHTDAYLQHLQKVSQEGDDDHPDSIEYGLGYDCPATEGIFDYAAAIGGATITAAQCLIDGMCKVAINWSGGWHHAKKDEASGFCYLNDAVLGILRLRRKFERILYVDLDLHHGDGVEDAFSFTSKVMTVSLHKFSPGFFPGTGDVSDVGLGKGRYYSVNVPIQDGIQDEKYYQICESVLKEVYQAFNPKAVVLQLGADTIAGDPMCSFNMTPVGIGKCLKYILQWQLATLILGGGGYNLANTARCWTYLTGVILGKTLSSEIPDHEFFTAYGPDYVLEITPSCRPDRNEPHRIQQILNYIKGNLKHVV
Method: as §1

[1] = tested on: acetylated tubulin (HDAC6 substrate) in N2a cells; assay: Western blot of acetylated tubulin in N2a; format: cell-based; settings: 6 h, 10, 2, and 0.2 µM
Method: (§2) MCF-7 and N2a cell lines were incubated with various concentrations of test agents for 6 h. Cell lysis and Western blot analyses were performed as previously described. Anti-acetylated tubulin antibody and horseradish peroxidase (HRP)-conjugated secondary antibodies (Santa Cruz Biotechnology) were used. Immunoreactive bands were visualized using enhanced chemiluminescence (Millipore, Burlington, MA, USA).
(§3) GAPDH was used as a loading control.

HDAC3 = molecular target: T5, HDAC3 (Homo sapiens, UniProt O15379); assay: HDAC enzyme inhibition assay, HDAC3; format: biochemical; settings: read-out: IC50 (µM) HDAC3 (Class I)
T5 construct: purchased PBS Biosciences [sic]
T5 sequence (O15379 whole entry): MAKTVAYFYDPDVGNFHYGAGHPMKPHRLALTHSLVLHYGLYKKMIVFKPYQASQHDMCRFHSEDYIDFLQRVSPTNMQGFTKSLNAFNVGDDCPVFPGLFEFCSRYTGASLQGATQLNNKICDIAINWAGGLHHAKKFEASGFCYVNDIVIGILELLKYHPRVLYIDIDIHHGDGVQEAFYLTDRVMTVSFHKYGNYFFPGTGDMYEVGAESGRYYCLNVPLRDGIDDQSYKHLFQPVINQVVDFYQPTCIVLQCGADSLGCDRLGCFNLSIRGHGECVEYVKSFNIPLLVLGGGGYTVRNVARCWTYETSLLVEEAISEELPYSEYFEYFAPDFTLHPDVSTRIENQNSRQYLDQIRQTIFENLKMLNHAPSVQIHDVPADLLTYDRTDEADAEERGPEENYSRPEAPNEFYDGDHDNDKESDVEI
T5 sequence (Q9Y618 395-489 partner limits assumed): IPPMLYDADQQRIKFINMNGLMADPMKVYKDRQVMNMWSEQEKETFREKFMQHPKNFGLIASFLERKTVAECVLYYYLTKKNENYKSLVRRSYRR
Method: as §1

[2] = tested on: acetylated tubulin (HDAC6 substrate) in MCF-7 cells; assay: Western blot of acetylated tubulin in MCF-7; format: cell-based, human
Method: as §2, §3

SMILES: O=C(/C=C/c1cccc(S(=O)(=O)Nc2ccccc2)c1)NO [Belinostat, reference compound]
IC50 (SKOV3 cells): 32.1 ± 5.5 µM
IC50 (MDA-MB 231 cells): 3.72 ± 0.5 µM
IC50 (PANC1 cells): 15.7 ± 2.3 µM
IC50 (SW620 cells): 14.9 ± 1.2 µM
IC50 (Hepa1c1c7 cells): 10.1 ± 0.9 µM
IC50 (EMT 6 cells): 11.3 ± 2.6 µM
IC50 (HDAC4): 2.7 ± 0.12 µM
IC50 (MCF-7 cells; Homo sapiens, MCF7, 48 h): 2.6 ± 1.4 µM
Emax (MCF-7 cells; Homo sapiens): 100%
IC50 (N2A cells): 3.66 ± 0.7 µM
IC50 (HDAC6; IC50 (µM) HDAC6 (Class IIb)): 0.2 ± 0.01 µM

SMILES: O=C(CSc1nc2ccccc2c(=O)n1Cc1ccccc1)NO [Compound 1]
melting point: 188 to 191 °C
Emax (MCF-7 cells; Homo sapiens): 20%

SMILES: O=C(CSc1nc2ccccc2c(=O)n1Cc1ccc(F)cc1)NO [Compound 2]
Emax (MCF-7 cells; Homo sapiens): 11%

SMILES: O=C(CSc1nc2ccccc2c(=O)n1Cc1cccc(F)c1)NO [Compound 3]
melting point: 177 to 180 °C
Emax (MCF-7 cells; Homo sapiens): 24%

SMILES: Cc1ccc(Cn2c(SCC(=O)NO)nc3ccccc3c2=O)cc1 [Compound 6]
melting point: 184 to 186 °C
Emax (MCF-7 cells; Homo sapiens): 22%

SMILES: O=C(CCCCSc1nc2ccccc2c(=O)n1Cc1ccc(F)cc1)NO [Compound 8]
IC50 (SKOV3 cells): 4.5 ± 0.1 µM
IC50 (MDA-MB 231 cells): 0.51 ± 0.02 µM
HDAC11 inhibition compared to Belinostat (in words) (HDAC11; dose-dependent): higher activity against HDAC11 compared to the reference
IC50 (HDAC11; read-out: IC50 (µM) HDAC11 (Class IV)): ~3 µM
IC50 (PANC1 cells): 12.8 ± 0.75 µM
IC50 (SW620 cells): 0.81 ± 0.01 µM
IC50 (Hepa1c1c7 cells): 1.3 ± 0.2 µM
IC50 (EMT 6 cells): 1.3 ± 0.3 µM
IC50 (HDAC8): 0.8 ± 0.01 µM
acetylation of tubulin (Western blot) [1]: induced acetylated tubulin levels in a dose-dependent manner
melting point: 138 to 140 °C
IC50 (HDAC4): > 10 µM
IC50 (MCF-7 cells; Homo sapiens, MCF7, 48 h): 3.4 µM
Emax (MCF-7 cells; Homo sapiens): 90.6%
IC50 (MCF-7 cells): 3.44 ± 1.11 µM
IC50 (N2A cells): 3.2 ± 0.1 µM
Selective Fold (Ratio) HDAC3/ HDAC6 (HDAC6; ratio of IC50): 7.9 fold and 7.94 fold
Selective Fold (Ratio) HDAC4/ HDAC6 (HDAC6; ratio of IC50): >29.4 fold
Selective Fold (Ratio) HDAC8/ HDAC6 (HDAC6; ratio of IC50): 2.3 fold and 2.32 fold
Selective Fold (Ratio) HDAC11/ HDAC6 (HDAC6; ratio of IC50): >29.4 fold
IC50 (HDAC6; read-out: IC50 (µM) HDAC6 (Class IIb)): 2.3 µM and 0.3 µM
IC50 (HDAC3): 2.7 ± 0.08 µM
acetylation level of tubulin (Western blot) at 10 µM ([2]; 10 µM, cell line not named): increased acetylation level of tubulin
acetylation of tubulin (Western blot) ([2]; MCF-7, 6 h, 10, 2, and 0.2 µM): induced acetylated tubulin levels in a dose-dependent manner

SMILES: O=C(CCCCSc1nc2ccccc2c(=O)n1Cc1ccc(-c2ccccc2)cc1)NO [Compound 10]
melting point: 180 to 182 °C
IC50 (MCF-7 cells; Homo sapiens, MCF7, 48 h): 14.2 ± 1.14 µM
Emax (MCF-7 cells; Homo sapiens): 89.7%

SMILES: COc1ccc(-c2nc3ccccc3c(=O)n2CCCCC(=O)NO)cc1 [Compound 13]
melting point: 173 to 175 °C
IC50 (MCF-7 cells; Homo sapiens, MCF7, 48 h): 37.3 ± 1.21 µM
Emax (MCF-7 cells; Homo sapiens): 95.8%

Continued, in another order:

melting point: 184 to 186 °C
SMILES: O=C(CSc1nc2ccccc2c(=O)n1Cc1ccc(F)c(F)c1)NO [Compound 4]
Emax (MCF-7 cells; Homo sapiens): 23%

melting point: 176 to 179 °C
SMILES: O=C(CSc1nc2ccccc2c(=O)n1Cc1ccccc1[N+](=O)[O-])NO [Compound 5]
Emax (MCF-7 cells; Homo sapiens): 17%

melting point: 145 to 147 °C
IC50 (MCF-7 cells; Homo sapiens, MCF7, 48 h): 36.9 ± 1.12 µM
SMILES: O=C(CCCCSc1nc2ccccc2c(=O)n1Cc1cccc(F)c1)NO [Compound 9]
Emax (MCF-7 cells; Homo sapiens): 96.8%
antiproliferative activity (in words) (MCF-7 cells; MCF-7): loss of activity

melting point: 120 to 122 °C
SMILES: O=C(CN1CCN(CCn2c(-c3ccc(F)cc3)nc3ccccc3c2=O)CC1)NO [Compound 11]

melting point: 156 to 158 °C
IC50 (MCF-7 cells; Homo sapiens, MCF7, 48 h): 37.9 ± 1.71 µM
SMILES: O=C(CCCCn1c(-c2ccc(F)cc2)nc2ccccc2c1=O)NO [Compound 14]
Emax (MCF-7 cells; Homo sapiens): 100%

melting point: 195 to 197 °C
SMILES: O=C(CCCCn1c(-c2ccco2)nc2ccccc2c1=O)NO [Compound 15]
Emax (MCF-7 cells; Homo sapiens): 1.5%
